Measured values: PubChem BioAssay (NCI)
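Following 48 hours of exposure in 96-well plates, responses at five concentrations were used to interpolate endpoints linearly. TGI: concentration producing complete growth inhibition.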

Columns and labels:
Experiment in all cases: growth of human tumour cells (NCI), 48 h
[1] = tested on: NCI-H460 lung
[2] = tested on: M14 melanoma
[3] = tested on: OVCAR-4 ovarian
[4] = tested on: SNB-75 CNS
[5] = tested on: BT-549 breast
[6] = tested on: TK-10 renal
[7] = tested on: HCT-116 colon
[8] = tested on: ACHN renal
[9] = tested on: A498 renal
[10] = tested on: MDA-MB-231 breast
[11] = tested on: HL-60(TB) leukemia
[12] = tested on: SF-295 CNS
[13] = tested on: SK-OV-3 ovarian
[14] = tested on: NCI/ADR-RES ovarian
[15] = tested on: COLO 205 colon
[16] = tested on: OVCAR-8 ovarian
[17] = tested on: SN12C renal
[18] = tested on: PC-3 prostate
[19] = tested on: NCI-H522 lung
[20] = tested on: HOP-62 NSCLC

Structure (SMILES) | TGI [1] [µM] | TGI [2] [µM] | TGI [3] [µM] | TGI [4] [µM] | TGI [5] [µM] | TGI [6] [µM] | TGI [7] [µM] | TGI [8] [µM] | TGI [9] [µM] | TGI [10] [µM] | TGI [11] [µM] | TGI [12] [µM] | TGI [13] [µM] | TGI [14] [µM] | TGI [15] [µM] | TGI [16] [µM] | TGI [17] [µM] | TGI [18] [µM] | TGI [19] [µM] | TGI [20] [µM]
N#CC(c1ccccc1)N(CCOCCOCCN(C(=O)c1cccc2ccccc12)C(C#N)c1ccccc1)C(=O)c1cccc2ccccc12 (configuration not stated) | > 100 | > 100 | > 100 | > 100 | > 100 | > 100 | > 100 | > 100 | > 100 | > 100 | > 100 | > 100 | > 100 | > 100 | > 100 | > 100 | > 100 | > 100 | – | –
O=C(CC(=O)N1N=C(N(c2ccccc2)c2ccccc2)CC1c1ccccc1)Nc1ccccc1 (configuration not stated) | > 100 | > 100 | > 100 | > 100 | > 100 | > 100 | > 100 | > 100 | – | > 100 | > 100 | > 100 | > 100 | > 100 | > 100 | > 100 | – | > 100 | > 100 | > 100
Cc1ccc(C2SCC(=O)N2NC(=O)c2ccncc2)s1 (configuration not stated) | – | > 100 | > 100 | – | > 100 | > 100 | > 100 | > 100 | > 100 | > 100 | – | > 100 | > 100 | > 100 | > 100 | > 100 | > 100 | > 100 | > 100 | > 100
O=C(c1ccccc1)C1C[C@H]2CO[C@H](c3ccccc3)N2C1=O (some centres not stated) | > 100 | > 100 | > 100 | > 100 | > 100 | > 100 | > 100 | > 100 | – | > 100 | – | > 100 | – | > 100 | > 100 | > 100 | > 100 | > 100 | > 100 | –
O=C(OCc1ccccc1)N1CCCc2c(n(S(=O)(=O)c3ccccc3)c3ccccc23)C1 | > 100 | > 100 | > 100 | – | > 100 | > 100 | > 100 | > 100 | > 100 | > 100 | > 100 | > 100 | > 100 | > 100 | > 100 | > 100 | > 100 | > 100 | > 100 | > 100
O=c1c2cc(S(=O)(=O)Nc3c(Cl)cccc3Cl)ccc2ncn1NS(=O)(=O)c1ccc2ccccc2c1 | > 62.5 | > 62.5 | > 62.5 | > 62.5 | > 62.5 | > 62.5 | > 62.5 | > 62.5 | – | > 62.5 | > 62.5 | > 62.5 | > 62.5 | > 62.5 | > 62.5 | > 62.5 | > 62.5 | > 62.5 | > 62.5 | > 62.5
Cn1c(=O)cc(N2CCCC2)[nH]c1=O | > 100 | > 100 | > 100 | > 100 | > 100 | > 100 | > 100 | > 100 | – | > 100 | > 100 | > 100 | – | > 100 | > 100 | > 100 | > 100 | > 100 | > 100 | > 100
CC(=O)CCC[C@H](C)[C@@H](O)[C@@H]1O[C@H]([C@@]2(C)CCC(=O)O2)C[C@H]1C(=O)O | > 100 | – | > 100 | > 100 | > 100 | > 100 | > 100 | > 100 | – | > 100 | – | > 100 | > 100 | > 100 | > 100 | > 100 | > 100 | > 100 | > 100 | > 100
COC(=O)[C@H](COC(=O)/C=C/c1ccc(OC(C)=O)c(OC(C)=O)c1)NC(=O)/C=C/c1ccc(OC(C)=O)c(OC(C)=O)c1 | 53.9 | 54.3 | 38.9 | 30.1 | 34.9 | – | 36.2 | 42.2 | > 100 | 36.8 | > 100 | – | 54.3 | > 100 | 37 | 67.4 | 36.4 | 31.2 | – | 34.3
O=[N+]([O-])c1ccc(C(=Nc2ccccc2)SSC(=Nc2ccccc2)c2ccc([N+](=O)[O-])o2)o1 | > 25.5 | 4.85 | 3 | 3.45 | 3.69 | 13.9 | 2.95 | 5.21 | – | 7.92 | 8.61 | 8.31 | 14.3 | 7.43 | 2.44 | 3.75 | 4.48 | 4.03 | 0.755 | 6.23
C#CCCOC(=O)c1ccccc1OC(C)=O | > 100 | > 100 | > 100 | > 100 | > 100 | > 100 | > 100 | > 100 | > 100 | > 100 | – | > 100 | > 100 | > 100 | > 100 | > 100 | > 100 | > 100 | > 100 | > 100
Cc1nnc2n1N=C(c1cc(F)c(Cl)cc1Cl)/C(=C/c1ccc3c(c1)OCO3)S2 | > 100 | > 100 | > 100 | – | > 100 | > 100 | > 100 | > 100 | > 100 | > 100 | > 100 | > 100 | > 100 | > 100 | > 100 | > 100 | > 100 | > 100 | 78.2 | > 100
NC(=O)OCc1c(-c2ccccc2)nn(-c2ccccc2)c1COC(N)=O | – | > 100 | > 100 | > 100 | > 100 | > 100 | > 100 | – | – | > 100 | – | > 100 | – | > 100 | > 100 | > 100 | > 100 | > 100 | > 100 | –
CCOP(=O)(OCC)C(F)(F)Cc1cnc(C)c2c1COC(C)(C)O2 | > 10 | > 10 | > 10 | > 10 | > 10 | > 10 | > 10 | > 10 | > 10 | > 10 | > 10 | > 10 | > 10 | > 10 | > 10 | > 10 | > 10 | > 10 | – | > 10
CCc1ccccc1NC(=O)C(=O)CC(=O)c1sc(Nc2ccccc2Cl)nc1C | 46.1 | 63.7 | > 100 | – | > 100 | > 100 | 50.4 | > 100 | – | > 100 | > 100 | 99.2 | 63.3 | > 100 | 52.3 | > 100 | > 100 | > 100 | 47.5 | > 100
CC12C(=O)OC(=O)C1(C)C1C=CC2O1 (configuration not stated) | > 100 | > 100 | – | > 100 | > 100 | > 100 | > 100 | > 100 | > 100 | > 100 | > 100 | > 100 | > 100 | > 100 | > 100 | > 100 | > 100 | > 100 | > 100 | –
O=C1OC(CS(=O)(=O)c2ccccc2)CC1O (configuration not stated) | > 100 | > 100 | > 100 | – | > 100 | > 100 | > 100 | > 100 | > 100 | > 100 | – | > 100 | > 100 | > 100 | > 100 | > 100 | > 100 | > 100 | > 100 | > 100
O=Nc1c(NO)ccc2nn(-c3ccccc3)nc12 | > 100 | > 100 | > 100 | > 100 | > 100 | > 100 | 23.1 | 47.7 | – | > 100 | > 100 | > 100 | > 100 | > 100 | > 100 | > 100 | 40 | > 100 | 13.2 | > 100
Cn1c(=O)n2n(c1=O)[C@@H](c1ccccc1)[C@H]2c1ccccc1 | > 100 | > 100 | > 100 | > 100 | > 100 | > 100 | > 100 | > 100 | > 100 | > 100 | > 100 | > 100 | > 100 | > 100 | > 100 | > 100 | > 100 | > 100 | – | > 100
COc1cc2c(cc1OC)C(=O)/C(=C/c1ccc([N+](=O)[O-])cc1)CC2 | > 10 | > 10 | > 10 | – | > 10 | > 10 | > 10 | > 10 | – | > 10 | > 10 | > 10 | > 10 | > 10 | > 10 | > 10 | > 10 | > 10 | – | > 10
CN(C)Cc1cc(/C=C/C(=O)c2ccc(Cl)c(Cl)c2)cc(CN(C)C)c1O | 22.7 | 33.3 | – | 21.1 | 22.2 | 25.6 | 26.1 | 25.4 | 32.4 | 21.8 | > 100 | 36.1 | 36.9 | 50.6 | 32.5 | 32.8 | 30.2 | 28.2 | – | 38
COc1ccc(C2=NN(C(=O)c3cccnc3)C(O)(c3cc(F)c(Cl)cc3Cl)C2)cc1OC (configuration not stated) | 38.3 | 34.6 | > 100 | 62.9 | 41.5 | > 100 | 29.2 | 57.9 | – | 37.9 | 40.9 | 39 | 86.7 | 49.9 | 27.8 | 35.7 | 34.7 | 43.3 | 34.9 | 47.7
O=C(O)c1ccc(NNC(=O)c2cccc3c(=O)c4ccccc4[nH]c23)cc1 | > 100 | > 100 | > 100 | > 100 | > 100 | > 100 | > 100 | > 100 | – | > 100 | > 100 | > 100 | > 100 | > 100 | > 100 | > 100 | > 100 | > 100 | 96 | > 100
CCOC(=O)c1ccc(N=c2oc3ccc(OC)cc3cc2-c2nc3ccccc3[nH]2)cc1 | > 100 | > 100 | > 100 | 65.2 | > 100 | > 100 | > 100 | > 100 | – | > 100 | > 100 | > 100 | > 100 | > 100 | > 100 | 43.2 | > 100 | > 100 | > 100 | > 100
O=c1cc(-c2cccc(OCc3ccccc3)c2)[nH]c2cc3c(cc12)OCO3 | 11.2 | > 84.5 | > 27.8 | – | > 100 | 24.7 | > 100 | 64.3 | 3.16 | 9.03 | 0.412 | 14.4 | 4.23 | 0.462 | > 22.7 | 9.87 | > 22.1 | > 100 | 1.42 | 9.98
